“Also recorded” adds a separate entry of the source.
Columns and labels:
Escherichia coli = experiment: Antibiotic combination growth assay (384-well checkerboard, OD600)
MRSA = settings: Rajamuthiah et al. (2014, 2015); cited from earlier work
[1] = tested on: E. coli strain 7KOΔtolC:roGFP; experiment: Real-time measurement of intrabacterial redox potential (roGFP); settings: niclosamide alone in strain with in-frame deletion of tolC; FIG. 59
Method: (§1) Cells were fixed with N-ethylmaleimide at various time points post niclosamide incubation, and then passed through a flow cytometry system. The ImageStream recorded each individual cell and all images were processed automatically.
In vivo analysis of the intrabacterial redox potential was performed at 30° C. in a Synergy H1 Multimode plate reader (BioTek) with excitation measured at 405 and 480 nm and emission measured at 510 nm. Log phase bacterial cultures of 7KO:roGFP or 7KOΔtolC:roGFP were resuspended in 0.9% saline at OD 1.0, and 100 μL aliquots were loaded in individual wells of a black, clear-bottom 96-well plate. Background signals from the non-fluorescent (i.e., without pRSETB-RoGFP2) corresponding strain were obtained in the same experiment. Fluorescence signals were followed for 160-180 min, and the resulting 405/480 ratio signals were calculated. […]
Samples were analyzed by the AMNIS ImageStream as previously described (van der Heijden et al. (2015) Proc Natl Acad Sci USA 112, 560-565). […] The data files were further analyzed using IDEAS software, version 6.0.129.0, which is supplied by AMNIS. Bacterial cells were selected based on fluorescence at 660 nm. […]
In vivo analysis of the intrabacterial redox potential was done at 30° C. in a Synergy H1 Multimode plate reader (BioTek) with excitation at 405 and 480 nm while emission was measured at 510 nm. […]

Enterobacter aerogenes = settings: Rajamuthiah et al. (2015), compound alone; cited from earlier work
P. aeruginosa = settings: Imperi et al. (2013), FIG. 2A there; cited from earlier work
Pseudomonas aeruginosa [2] = settings: Rajamuthiah et al. (2015), compound alone; cited from earlier work
[3] = tested on: quorum sensing system in Pseudomonas aeruginosa; settings: among FDA-approved drugs tested, Imperi et al. (2013); cited from earlier work
Klebsiella pneumoniae [4] = experiment: Antibiotic combination growth assay (384-well checkerboard, OD600); settings: in conjunction with a polymyxin (polymyxin B or polymyxin E (colistin)); antibiotic-resistant and laboratory strains; FIGS. 21-28
[5] = tested on: methicillin-resistant Staphylococcus aureus (MRSA); settings: Lau et al. (2015), under the assay conditions used; cited from earlier work
macrophages = settings: cited from earlier work
Salmonella enterica = experiment: Antibiotic combination growth assay (384-well checkerboard, OD600); assay type: cell-based; settings: in conjunction with a polymyxin (polymyxin B or polymyxin E (colistin)); Serovar Typhimurium (SL1344); FIGS. 33-36
Gram negative bacteria = settings: in combination with an efflux pump inhibitor (e.g. TolC efflux pump inhibitor); PCT/NZ2015/050192; cited from earlier work
M. tuberculosis = settings: de Carvalho et al. (2011); cited from earlier work
Acinetobacter baumannii [6] = experiment: Antibiotic combination growth assay (384-well checkerboard, OD600); settings: in conjunction with a polymyxin (polymyxin B or polymyxin E (colistin)); ATCC type strain 19606; FIGS. 37-40
Enterococcus faecium = settings: Rajamuthiah et al. (2015); cited from earlier work
Klebsiella pneumoniae [7] = settings: Rajamuthiah et al. (2015), compound alone; cited from earlier work
[8] = tested on: Mycobacterium tuberculosis; settings: cited from earlier work
Pseudomonas aeruginosa [9] = experiment: Antibiotic combination growth assay (384-well checkerboard, OD600)
Enterobacter cloacae = experiment: as above; settings: in conjunction with a polymyxin (polymyxin B or polymyxin E (colistin)); subsp. cloacae ATCC 13047; FIGS. 29-32
E. coli strain 7KO:roGFP = experiment: Real-time measurement of intrabacterial redox potential (roGFP)
Method: as §1
In vivo analysis of the intrabacterial redox potential was performed at 30° C. in a Synergy H1 Multimode plate reader (BioTek) with excitation measured at 405 and 480 nm and emission measured at 510 nm. Log phase bacterial cultures of 7KO:roGFP or 7KOΔtolC:roGFP were resuspended in 0.9% saline at OD 1.0, and 100 μL aliquots were loaded in individual wells of a black, clear-bottom 96-well plate. Background signals from the non-fluorescent (i.e., without pRSETB-RoGFP2) corresponding strain were obtained in the same experiment. Fluorescence signals were followed for 160-180 min, and the resulting 405/480 ratio signals were calculated. […] Reduced and oxidized controls were obtained within each experiment using a final concentration of 10 mM H2O2 or 1 mM DTT respectively.
Samples were analyzed by the AMNIS ImageStream as previously described (van der Heijden et al. (2015) Proc Natl Acad Sci USA 112, 560-565). The laser intensities for 405, 488, 658, and 785 nm were 100, 120, 20, and 3.8, respectively. The data files were further analyzed using IDEAS software, version 6.0.129.0, which is supplied by AMNIS. Bacterial cells were selected based on fluorescence at 660 nm. Every image of an infected cell was then selected by the program based on fluorescent intensity at 660 nm. Based on this selection, a mask was created that was used for analysis of the 405/480 nm ratio. The resulting 405/480 ratio signals were plotted in a histogram. Reduced and oxidized controls were obtained within each experiment, and all values were normalized to oxidized and reduced ratio values.
In vivo analysis of the intrabacterial redox potential was done at 30° C. in a Synergy H1 Multimode plate reader (BioTek) with excitation at 405 and 480 nm while emission was measured at 510 nm. Log phase bacterial cultures were resuspended in 0.9% saline at OD 1.0, and 200 μL per well were loaded in a black, clear-bottom 96-well plate. Background signals from the nonfluorescent corresponding strain were obtained in the same experiment.

Acinetobacter baumannii [10] = settings: Rajamuthiah et al. (2015), compound alone; cited from earlier work

With `O=[N+]([O-])c1ccc(O)c([N+](=O)[O-])c1` [2,4-dinitrophenol] the “synergistic effect in combination with colistin” value (Escherichia coli; with colistin, E. coli MG1655, FIGS. 45, 46, 53-58) was “only weak synergistic effect”.
In the case of `Cc1cc(C(C#N)c2ccc(Cl)cc2)c(Cl)cc1NC(=O)c1cc(I)cc(I)c1O` (stereo not drawn) [closantel, N-[5-Chloro-4-[(4-chlorophenyl)-cyanomethyl]-2-methylphenyl]-2-hydroxy-3,5-diiodobenzamide], the “toxicity / activity against MRSA” value (MRSA) is listed as “active”.
In the case of `O=C(Nc1ccc([N+](=O)[O-])cc1Cl)c1cc(Cl)ccc1O` [niclosamide, N-(2′-chloro-4′-nitrophenyl)-5-chlorosalicylamide], the “intracellular redox stress (405/480 nm ratio)” value [1] is given as “experienced increasing redox stress; also recorded: irreversible increase in intracellular redox stress”, the inhibition of growth (Enterobacter aerogenes) is given as “neither niclosamide nor oxyclozanide were active” and the inhibition of growth (P. aeruginosa) is given as “failed to inhibit the growth”. The inhibition of growth (Pseudomonas aeruginosa [2]) was “neither niclosamide nor oxyclozanide were active”, the anti-quorum sensing activity [3] was “highest anti-quorum sensing activity” and the “growth inhibition effect of the combination” value (“growth inhibition effect” for short) (Escherichia coli; in conjunction with a polymyxin (polymyxin B or polymyxin E (colistin)), antibiotic-resistant and laboratory strains, FIGS. 1-12) was “synergistic growth inhibition effect”. The “growth inhibition effect” value (Klebsiella pneumoniae [4]) was “synergistic growth inhibition effect”, the minimum inhibitory concentration [5] was “sub-micromolar” and the “toxicity / activity against MRSA” value (MRSA) was “directly toxic”. The toxicity against macrophages (macrophages) was “did observe toxicity”, the “growth inhibition effect” value (Salmonella enterica) was “synergistic growth inhibition effect” and the “direct toxicity to Gram negative bacteria” value (Gram negative bacteria) was “directly toxic”. The “uncoupling of the membrane potential” value (M. tuberculosis) was “uncoupled the membrane potential”, the “growth inhibition effect” value (Acinetobacter baumannii [6]) was “synergistic growth inhibition effect” and the “toxicity to Enterococcus faecium” value (Enterococcus faecium) was “directly toxic”. For the same molecule, the inhibition of growth (Klebsiella pneumoniae [7]) was “neither niclosamide nor oxyclozanide were active”, the MIC ([8]; Sun and Zhang (1999)) was 0.5 to 1.0 µg/mL and the “activity against non-replicating M. tuberculosis” value ([8]; grown in low oxygen conditions) was “active”. For the same molecule, the “growth inhibition effect” value (Pseudomonas aeruginosa [9]; in conjunction with a polymyxin (polymyxin B or polymyxin E (colistin)), antibiotic-resistant and laboratory strains, FIGS. 13-20) was “synergistic growth inhibition effect”, the “growth inhibition effect” value (Enterobacter cloacae) was “synergistic growth inhibition effect” and the “intracellular redox stress (405/480 nm ratio)” value (E. coli strain 7KO:roGFP; 1 μM niclosamide in combination with 0.5 μM colistin, FIG. 60 C) was “irreversible increase in intracellular redox stress”. The “intracellular redox stress (405/480 nm ratio)” value (E. coli strain 7KO:roGFP; 1 μM niclosamide in combination with 0.5 μM polymyxin B, FIG. 60 D) was “irreversible increase in intracellular redox stress”, the “intracellular redox stress (405/480 nm ratio)” value (E. coli strain 7KO:roGFP; 1 μM niclosamide in combination with 25 μM PAβN (TolC efflux pump inhibitor), FIG. 60 B) was “irreversible increase in intracellular redox stress” and the “intracellular redox stress (405/480 nm ratio)” value (E. coli strain 7KO:roGFP; niclosamide alone, FIG. 59) was “did not experience significant redox stress”. The inhibition of growth (Acinetobacter baumannii [10]) was “neither niclosamide nor oxyclozanide were active”.
In the case of `CC(=O)Oc1ccccc1C(=O)Nc1ncc([N+](=O)[O-])s1` [nitazoxanide, 2-acetyloxy-N-(5-nitro 2-thiazolyl)benzamide], the “uncoupling of the membrane potential” value (M. tuberculosis) is listed as “uncoupled the membrane potential”.
In the case of `O=C(Nc1cc(Cl)cc(Cl)c1O)c1c(O)c(Cl)cc(Cl)c1Cl` [oxyclozanide, 2,3,5-trichloro-N-(3,5-dichloro-2-hydroxyphenyl)-6-hydroxybenzamide], the inhibition of growth (Enterobacter aerogenes) is listed as “neither niclosamide nor oxyclozanide were active”, the inhibition of growth (Pseudomonas aeruginosa [2]) is listed as “neither niclosamide nor oxyclozanide were active” and the “toxicity / activity against MRSA” value (MRSA) is listed as “directly toxic”. The “toxicity to Enterococcus faecium” value (Enterococcus faecium) was “directly toxic”, the inhibition of growth (Klebsiella pneumoniae [7]) was “neither niclosamide nor oxyclozanide were active” and the inhibition of growth (Acinetobacter baumannii [10]) was “neither niclosamide nor oxyclozanide were active”.
With Gramicidin the “growth inhibition effect” value (Escherichia coli; gramicidin with niclosamide, E. coli laboratory strain W3110, FIGS. 41-42) was “synergistic growth inhibition effect” and the “growth inhibition effect” value (Pseudomonas aeruginosa [9]; gramicidin with niclosamide, antibiotic-resistant clinical isolate (NZ isolate AR 00/537), FIGS. 43-44) was “synergistic growth inhibition effect”.
